Some test systems named below: E. coli ATCC25922; E. coli KK45; A. baumannii (MTCC1920); A. baumannii (AB387); K. planticola (1164); P. aeruginosa (MTCC1688); P. aeruginosa (Ps 366); Enterococcus sp. (2105); Enterococcus sp. (1121); Providencia sp. (P592).
What all share (test): HN12b in combination with efflux pump inhibitors (CB method, FICI)
The subject of assay [1] is K. planticola (MTCC 2272).
The test system of assay [2] is Providencia sp. (MTCC 2102).

The term MIC90 denotes the lowest concentration that inhibits either 90% of growth or 90% of the strains tested, depending on the study.

For `N#CC(C#N)=NNc1cccc(Cl)c1` [CCCP, carbonyl cyanide-m-chlorophenyl hydrazone, reference compound], the MIC90 in the assay with E. coli ATCC25922 (Escherichia coli, ATCC25922) turned out to be 11.8 µg/mL; in the assay on E. coli KK45 (Escherichia coli, KK45), 12.3 µg/mL; with A. baumannii (MTCC1920) (Acinetobacter baumannii, MTCC1920), 30.2 µg/mL; in the assay on A. baumannii (AB387) (Acinetobacter baumannii), 12 µg/mL; in assay [1] (Klebsiella planticola, MTCC2272) it was 13.9 µg/mL; in the assay with K. planticola (1164) (Klebsiella planticola) it was 14.7 µg/mL. In addition, the MIC90 in the assay on P. aeruginosa (MTCC1688) (Pseudomonas aeruginosa, MTCC1688) was found to be 128 µg/mL; with P. aeruginosa (Ps 366) (Pseudomonas aeruginosa), 128 µg/mL; in the assay on Enterococcus sp. (2105) (Enterococcus), 27.7 µg/mL; in the assay on Enterococcus sp. (1121) (Enterococcus), 16.2 µg/mL; in assay [2] (Providencia, MTCC2102), 10.9 µg/mL; with Providencia sp. (P592) (Providencia), 67.2 µg/mL.
Consider “phenylalanine-arginine-β-naphthylamide [PAβN, reference compound]”, for which the “(BA) MIC90” value with E. coli ATCC25922 (E. coli ATCC25922, PAβN in presence of HN12b) turned out to be 4.8 µg/mL; with E. coli KK45 (E. coli KK45, PAβN in presence of HN12b) it was 10 µg/mL; in the assay on A. baumannii (MTCC1920) (A. baumannii (MTCC1920), PAβN in presence of HN12b) it was 59 µg/mL; with A. baumannii (AB387) (A. baumannii (AB387), PAβN in presence of HN12b), 32 µg/mL; in assay [1] (K. planticola (MTCC 2272), PAβN in presence of HN12b), 62 µg/mL; with K. planticola (1164) (K. planticola (1164), PAβN in presence of HN12b) it was 62 µg/mL. Besides, the “(BA) MIC90” value in the assay with P. aeruginosa (MTCC1688) (P. aeruginosa (MTCC1688), PAβN in presence of HN12b) is 60 µg/mL; with P. aeruginosa (Ps 366) (P. aeruginosa (Ps 366), PAβN in presence of HN12b) it was 55 µg/mL; with Enterococcus sp. (2105) (Enterococcus sp. (2105), PAβN in presence of HN12b) it was 59 µg/mL; with Enterococcus sp. (1121) (Enterococcus sp. (1121), PAβN in presence of HN12b) it was 63 µg/mL; in assay [2] (Providencia sp. (MTCC 2102), PAβN in presence of HN12b), 58 µg/mL; with Providencia sp. (P592) (Providencia sp. (P592), PAβN in presence of HN12b), 38 µg/mL. The MIC90 was 64 µg/mL in the assay with E. coli ATCC25922 (E. coli ATCC25922, single drug alone (A, B, C)); above 128 µg/mL in the assay with A. baumannii (MTCC1920) (A. baumannii (MTCC1920), single drug alone (A, B, C)); above 128 µg/mL with A. baumannii (AB387) (A. baumannii (AB387), single drug alone (A, B, C)); above 128 µg/mL in assay [1] (K. planticola (MTCC 2272), single drug alone (A, B, C)); above 128 µg/mL in the assay with K. planticola (1164) (K. planticola (1164), single drug alone (A, B, C)); 123 µg/mL with P. aeruginosa (MTCC1688) (P. aeruginosa (MTCC1688), single drug alone (A, B, C)). In addition, the MIC90 in the assay on P. aeruginosa (Ps 366) (P. aeruginosa (Ps 366), single drug alone (A, B, C)) was 120.2 µg/mL; in the assay with Enterococcus sp. (2105) (Enterococcus sp. (2105), single drug alone (A, B, C)), above 128 µg/mL; in the assay with Enterococcus sp. (1121) (Enterococcus sp. (1121), single drug alone (A, B, C)), above 128 µg/mL; in assay [2] (Providencia sp. (MTCC 2102), single drug alone (A, B, C)), above 128 µg/mL; in the assay on Providencia sp. (P592) (Providencia sp. (P592), single drug alone (A, B, C)) it was above 128 µg/mL.

The values above are taken from patent US11434227B2, “Broad spectrum antibacterial activity of novel bisbenzimidazoles targeting topoisomerase IA and the synergistic composition of bisbenzimidazole with efflux pump inhibitors against pathogenic bacteria” (Jawaharlal Nehru University (JNU), priority 2016, dated 2022).
